{"source": "a melting point compilation (Tetko et al.; mined from patent text by program, amines drawn as free bases though some values may be those of a salt)"}
{"units": {"melting point": "°C"}}
{"compound": "C=CC(C)c1cc(C)c2c(c1O)C(N(C)C=O)C1CCCCC21", "note": "(stereo not given)", "melting point": "158 to 159"}
{"compound": "Cc1oc(-c2ccccc2)nc1COc1ccc(C=O)cn1", "melting point": "116 to 117"}
{"compound": "N#CC1CN1C(=O)c1ccc(S(N)(=O)=O)cc1", "note": "(stereo not given)", "melting point": "145 to 146"}
{"compound": "NC(=NO)c1cccc(Oc2ccc3c(c2)S(=O)(=O)N=C2CCCN23)c1", "melting point": "165 to 169"}
{"compound": "CCCOc1ccccc1-c1nc2nc(N)nnc2c(=O)[nH]1", "melting point": "255 to 256"}
{"compound": "CCN1C[C@@H](SCc2ccc(OC)cc2)C[C@H]1C(N)=O", "melting point": "124 to 125"}
{"compound": "COc1ccc(C2OC(O[Si](C)(C)C)(C(F)(F)F)C(C)(C)N2C(=O)COc2ccccc2)cc1", "note": "(stereo not given)", "melting point": "89 to 92"}
{"compound": "CC(=O)Nc1ncc(Sc2nnc(C)s2)s1", "melting point": "242 to 244"}
{"compound": "Cn1c(=O)n(Cc2ccc(Cl)cc2Cl)c(=O)c2ccc(C(=O)O)cc21", "melting point": "308 to 310"}
{"compound": "CCCOC(C)c1ccc(-c2ccc(OCc3ccccc3)cc2)cc1", "note": "(single isomer, unassigned; (+))", "melting point": "106 to 108"}
{"compound": "CSc1cc2c(cc1C(F)(F)F)N(C(=O)Nc1cccc(C(=O)NCCN(C)C)c1)CC2", "melting point": "91 to 93"}
{"compound": "COc1ccc(N)c(C(=O)Cc2nnnn2C)c1", "melting point": "170 to 172"}
{"compound": "C[C@H](Oc1cc(-c2c3ccccc3c(Br)c3sc4ccccc4c23)ccc1Br)C(=O)O", "melting point": "132 to 134"}
{"compound": "CC(=O)OC1CC(C)(C)N(OC(=NC2CCCCC2)N(C(=O)c2ccccc2)C2CCCCC2)C(C)(C)C1", "melting point": "147 to 152"}
{"compound": "O=C(C=Cc1ccco1)Nc1nnn[nH]1", "melting point": "287 to 289"}
{"compound": "CCOC(=O)COc1cccc2c1OCCC2=O", "melting point": "56 to 66"}
{"compound": "CC(C(=O)O)c1ccc(C(=O)c2ccc(Cl)s2)cc1", "note": "(stereo not given)", "melting point": 137}
{"compound": "N#CC(NC(=O)c1cccn2cc(-c3ccccc3)nc12)c1ccco1", "note": "(stereo not given)", "melting point": "197 to 199"}
{"compound": "ON=Cc1ccc(-c2ccc(O)cc2)c2ccccc12", "melting point": 200}
{"compound": "COC1(C(O)CN2CCC(n3c(=O)[nH]c4ccccc43)CC2)COc2ccccc2O1", "note": "(stereo not given)", "melting point": "143 to 144"}
{"compound": "CCc1ccccc1NC(=O)c1ccc(CN2C(=O)C3(COc4cc5c(cc43)CCO5)c3ccccc32)cc1", "note": "(stereo not given)", "melting point": "203 to 204"}
{"compound": "CCOC(=O)CN1CSCCC(N2C(=O)c3ccccc3C2=O)C1=O", "note": "(stereo not given)", "melting point": "192 to 194"}
{"compound": "O=C(c1ccc(-c2ccccc2)cc1)N1Cc2cccnc2Nc2ccccc21", "melting point": "175 to 177"}
{"compound": "CC1(C)CCc2[nH]cc(C(=O)Nc3ccc4c(c3)OCO4)c2C1=O", "melting point": "251 to 252"}
{"compound": "COc1cc(C)c(C=CC(C)=CC=C(C)C(=O)O)c(C)c1C", "melting point": "188 to 190"}
{"compound": "O=C(Nc1nccs1)C(CC1CCCC1)c1ccc(-c2ccncc2)cc1", "note": "(stereo not given)", "melting point": "165 to 167"}
{"compound": "O=C(Nc1ccc(F)cc1)N1CC2C(C1)C2Nc1ncc2cc(-c3ccccc3Cl)c(=O)n(-c3ccc(F)cc3)c2n1", "note": "(stereo not given)", "melting point": "300 to 302"}
{"compound": "COc1ccc(COc2cc(NC(C)=O)c(Cl)cc2C(=O)CCCCCl)cc1OC", "melting point": 147}
{"compound": "CN1CCN(c2ccc(C(=O)N[C@H]3CC[C@H](CCN4CCC(c5cccc6c5CCO6)CC4)CC3)cc2)CC1", "melting point": 241}
{"compound": "O=Cc1ccc2c3cccc4cccc(c5cccc1c52)c43", "melting point": 230}
{"compound": "CCCCCCCCCCOc1ccc(O)c(C(=O)OC)c1", "melting point": "40 to 43"}
{"compound": "Cc1ccc(N2CCN(CCCN3c4cccc5cccc(c45)S3(=O)=O)CC2)cc1", "melting point": 136}
{"compound": "O=C(C=Cc1ccccc1S(=O)(=O)Nc1ccccc1)NO", "melting point": "205 to 206"}
{"compound": "CCCc1[nH]c(C(=O)OCC)c(C)c1CCC", "melting point": "84 to 87"}
{"compound": "OC(c1ccc(Cl)cc1Cl)C(Oc1ccc(Cl)cc1)n1ccnc1", "note": "(stereo not given)", "melting point": "108 to 110"}
{"compound": "ClC1=NCc2ccccc2SC1", "melting point": "164 to 168"}
{"compound": "Cc1ccccc1NC(=O)c1cc([N+](=O)[O-])ccc1NC(=O)CF", "melting point": "238 to 239"}
{"compound": "Cn1cncc1C(N)(c1ccc(Cl)cc1)c1ccc2c(c1)C(c1cccc(Cl)c1)=NCc1nnnn1-2", "note": "(stereo not given)", "melting point": 218}
{"compound": "CC1CN(Cc2n[nH]c3ccccc23)CCN1c1ccccc1", "note": "(single isomer, unassigned; (+))", "melting point": "164 to 165"}
{"compound": "CC(COc1ccccc1)=C1SC(=O)NC1=O", "melting point": "153 to 155"}
{"compound": "CCCc1cc2c(cc1O)CCO2", "melting point": "73 to 74"}
{"compound": "CC#CCOc1ccc(S(=O)(=O)C2(C(=O)O)CCN(Cc3ccc(F)cc3)CC2)cc1", "melting point": 106}
{"compound": "COc1cc(C(=O)NS(=O)(=O)c2ccccc2Cl)ccc1Cc1c(Cl)n(C)c2ccc(CC(C)NC(=O)N(C)C)cc12", "note": "(stereo not given)", "melting point": "126 to 136"}
{"compound": "Cn1nc(C(F)(F)F)c(C(O)=C(Br)n2ccc(-c3c(F)cccc3F)n2)c1Cl", "melting point": "123 to 125"}
{"compound": "CCC(C)N(C)C(=O)c1cc2ccccc2c(-c2cccs2)n1", "note": "(stereo not given)", "melting point": 146}
{"compound": "CCCCCNC(=O)N(C)c1cccc(-c2ccc(CCC(=O)O)cc2)c1", "melting point": "100 to 102"}
{"compound": "CCOP(=O)(CNC(Cc1ccc(Cl)cc1)c1cc(C(C)(C)C)c(O)c(C(C)(C)C)c1)OCC", "note": "(stereo not given)", "melting point": "120 to 121"}
{"compound": "O=C1C(=O)c2ccccc2C2=C1SCC1(CCN(CC(O)CC(F)(F)F)CC1)O2", "note": "(stereo not given)", "melting point": "145 to 148"}
{"compound": "CCNC(=O)Nc1nc2cc(-c3cnc(OC)nc3)ccn2n1", "melting point": "243 to 248"}
{"compound": "O=C(N1CC(CCl)c2c1ccc1ccccc21)C(F)(F)F", "note": "(stereo not given)", "melting point": 185}
